# PubChem BioAssay (NCI)
#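 Growth conditions: 96-well plates. Treatment: test compound, 48 hours, 5 concentrations. Analysis: linear interpolation between bracketing concentrations; unreached endpoints set to highest concentration. The concentration for full growth arrest is given as TGI.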
# What was measured:
# Experiment in all cases: NCI-60 cell line screen, 48 h
# 786-0 renal = tested on: 786-0 renal
# SK-MEL-2 melanoma = tested on: SK-MEL-2 melanoma
# IGROV1 ovarian = tested on: IGROV1 ovarian
# SR leukemia = tested on: SR leukemia
# MOLT-4 leukemia = tested on: MOLT-4 leukemia
# PC-3 prostate = tested on: PC-3 prostate
# SF-295 CNS = tested on: SF-295 CNS
# MDA-MB-231 breast = tested on: MDA-MB-231 breast
# HOP-62 NSCLC = tested on: HOP-62 NSCLC
# A498 renal = tested on: A498 renal
# OVCAR-4 ovarian = tested on: OVCAR-4 ovarian
Structure (SMILES),TGI (786-0 renal),TGI (SK-MEL-2 melanoma),TGI (IGROV1 ovarian),TGI (SR leukemia),TGI (MOLT-4 leukemia),TGI (PC-3 prostate),TGI (SF-295 CNS),TGI (MDA-MB-231 breast),TGI (HOP-62 NSCLC),TGI (A498 renal),TGI (OVCAR-4 ovarian)
COc1ccc(NS(=O)(=O)c2ccc(NC(NC(=O)CC(C)C)(C(F)(F)F)C(F)(F)F)cc2)nn1,> 100 µM,> 100 µM,> 100 µM,> 100 µM,> 100 µM,> 100 µM,> 100 µM,> 100 µM,> 100 µM,> 100 µM,> 100 µM
C=CCOc1ccc(C2C(C(=O)OCC)C(=O)CC(C)(O)C2C(=O)OCC)cc1OC (stereo unspecified),> 100 µM,> 100 µM,> 100 µM,> 100 µM,> 100 µM,> 100 µM,> 100 µM,> 100 µM,> 100 µM,> 100 µM,> 100 µM
CC(=O)O[C@H]1CC[C@@]2(C)C(=CC[C@H]3[C@@H]4C[C@H](N5CCOCC5)[C@H](OC(C)=O)[C@@]4(C)CC[C@@H]32)C1,> 100 µM,> 100 µM,> 100 µM,> 100 µM,> 100 µM,> 100 µM,> 100 µM,> 100 µM,> 100 µM,> 100 µM,> 100 µM
CC12CCC(O)CC1CCC1C2CCC2(C)C(C(=O)CC(O)C(F)(F)F)CCC12 (stereo unspecified),21.6 µM,> 100 µM,> 100 µM,11.2 µM,43.6 µM,> 100 µM,26.7 µM,98.2 µM,> 95.1 µM,40.7 µM,> 100 µM
[N-]=[N+]=NC1=C(c2ccccn2)C(=O)c2cccc3cccc1c23,> 100 µM,> 100 µM,> 100 µM,> 100 µM,6.16 µM,> 100 µM,> 100 µM,> 100 µM,> 100 µM,31.5 µM,> 100 µM
COc1ccc2c(cnc3c4cc(OC)c(OC)cc4ccc23)c1,> 100 µM,> 100 µM,> 100 µM,> 100 µM,> 100 µM,> 100 µM,> 100 µM,> 100 µM,> 100 µM,> 100 µM,> 100 µM
